Laboratory results taken from publication PMC11597374, “Synthesis, Characterizations, Anti-Diabetic and Molecular Modeling Approaches of Hybrid Indole-Oxadiazole Linked Thiazolidinone Derivatives” (Pharmaceuticals, 2024).

Legend:
α-glucosidase = α-glucosidase (Saccharomyces cerevisiae, UniProt P53341); assay: Alpha-glucosidase inhibition assay; assay type: biochemical; conditions: standard acarbose
Excerpt: (§1) In order to obtain biological profiles, all the derivatives were screened against enzymes α-amylase along and α-glucosidase.

α-amylase = molecular target: T1, α-amylase (Sus scrofa, UniProt P00690); assay: Alpha-amylase activity assay (starch, DNS, 540 nm); assay type: biochemical; conditions: standard acarbose
T1 sequence (P00690 16-511): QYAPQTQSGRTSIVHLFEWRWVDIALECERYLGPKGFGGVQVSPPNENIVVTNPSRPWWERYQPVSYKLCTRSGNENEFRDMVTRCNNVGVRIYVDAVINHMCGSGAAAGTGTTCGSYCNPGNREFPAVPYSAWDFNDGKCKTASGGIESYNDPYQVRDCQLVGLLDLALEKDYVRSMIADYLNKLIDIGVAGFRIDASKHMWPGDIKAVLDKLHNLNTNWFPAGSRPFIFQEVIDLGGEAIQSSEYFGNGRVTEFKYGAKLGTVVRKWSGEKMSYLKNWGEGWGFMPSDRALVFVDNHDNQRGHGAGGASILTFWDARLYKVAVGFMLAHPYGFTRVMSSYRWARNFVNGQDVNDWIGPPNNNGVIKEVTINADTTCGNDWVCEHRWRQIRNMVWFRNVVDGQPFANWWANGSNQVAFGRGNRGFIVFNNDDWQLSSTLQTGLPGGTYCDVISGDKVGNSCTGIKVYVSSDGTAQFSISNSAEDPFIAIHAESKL
Excerpt: as §1

α-glucosidase, sequence (P53341 whole entry): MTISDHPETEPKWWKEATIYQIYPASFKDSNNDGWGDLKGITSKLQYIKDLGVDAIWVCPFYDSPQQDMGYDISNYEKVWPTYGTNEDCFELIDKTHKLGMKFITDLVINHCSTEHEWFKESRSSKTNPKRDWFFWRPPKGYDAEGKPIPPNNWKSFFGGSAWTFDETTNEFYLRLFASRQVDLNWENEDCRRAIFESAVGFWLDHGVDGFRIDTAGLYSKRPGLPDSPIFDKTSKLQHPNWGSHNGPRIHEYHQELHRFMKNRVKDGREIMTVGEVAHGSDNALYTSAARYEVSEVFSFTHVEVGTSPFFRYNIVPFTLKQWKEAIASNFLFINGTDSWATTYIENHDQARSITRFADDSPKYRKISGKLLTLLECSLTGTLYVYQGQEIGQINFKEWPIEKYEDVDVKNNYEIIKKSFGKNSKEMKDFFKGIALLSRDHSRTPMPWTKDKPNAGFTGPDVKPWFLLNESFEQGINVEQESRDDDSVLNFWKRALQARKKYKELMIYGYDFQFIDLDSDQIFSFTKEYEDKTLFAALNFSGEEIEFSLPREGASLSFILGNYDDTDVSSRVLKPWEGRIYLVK

O=C1CS/C(=N\c2nnc(CC(c3c[nH]c4ccccc34)C(F)(F)F)o2)N1c1cccc(Oc2ccccc2)c1 (centres unmarked) [Compound 14]
Alpha Glucosidase IC50 (α-glucosidase): non-active | Alpha Amylase IC50 (α-amylase): non-active
